# Patent publication US6967102B1, “Nitric oxide manipulation of muscle satellite cell activation” (University of Manitoba, priority 1999, dated 2005)
# “Also recorded” adds a separate entry of the source.
# How the values were obtained:
# satellite cells [1] = test: Cell yield time course 0–30 min after crush injury of right tibialis anterior, normal mice; format: in vivo, normal mice (C57BL/6); conditions: L-Arg 225 mg/kg ip 30 min before crush; 0–30 min
# [2] = Muscle weight to body weight (edema) and haemorrhage after crush injury, normal mice; format: in vivo, normal mice (C57BL/6); conditions: ip treatment 30 min before crush; 0–30 min after injury
# satellite cells [3] = test: Isolated single muscle fiber culture, BrdU incorporation by satellite cells (activation); format: cell-based, C57 mice
# Source text: (§1) Flexor digitorum brevis (FDB) muscles from normal C57 mice were dissected from the foot, and connective tissue, vessels and nerves were cleaned off the muscle. Following a 3 hr collagenase digestion (0.2% in DMEM), and viewed on a dissecting microscope, the muscle was separated into three bundles and the overlying connective tissue was peeled off the bundles using sharp forceps. The individual fibers were then teased off the remnant tendon and into smaller bundles. Bundles were gently triturated to separate single fibers using a wide mouth glass pipette with a polished end. The fibers were plated onto vitrogen-coated 35 mm dishes and grown in 1.5 ml of DMEM+10% Horse Serum (HS)+1% antimyotics+0.1% gentamycin.
# Live fibers exclude Ethidium bromide (EtBr), but 5 minutes after adding a myotoxin called marcaine (Bischoff R. (1990b). Development 109:943–952) to the medium, nuclei in fibers (and not in satellite cells) are fluorescent for EtBr. Hypercontraction occurs another 5–10 min later. Satellite cells exclude EtBr but take up an indicator of live cells, fluoresceine diacetate (FDA). Without this characterization, observations on satellite cells in a culture could include artefacts from membrane damage that initiates activation differently than any treatment under study. Satellite cells on our intact fibers were also quiescent after isolation. […] This conclusion is critical to any studies that propose to examine activation signals and their regulation.
# Experimental Protocol: Fibers are isolated from flexor digitorum brevis (FDB) muscles on the plantar foot of 3 mice, then digested in collagenase (0.2% for 3 hr) and separated under a stereo microscope into small bundles (Yablonka-Reuveni, Z. and Rivera AJ. (1994). Dev. Biol. 164:588–603). […]
# Fibers are incubated in 20% serum replacement medium (CSR; Yablonka-Reuveni, Z, and Rivera A J. (1994). Dev. Biol. 164:588–603). […] Activation is measured by counting labelled satellite cells per fiber (150–250 fibers/dish). […]
# muscle fibers = test: Marcaine / ethidium bromide staining and hypercontraction of isolated muscle fibers; format: cell-based, C57 mice
# Source text: as §1
# Marcaine, an anaesthetic, was previously used to kill live fibers by adding it to a dish for 20–30 minutes (Cornelison, D. D. W., and Wold, B. J. (1997). Dev. Biol. 191:270–283) but the exact time of fiber death was never identified. Ethidium bromide (EtBr) is a fluorescent chemical which intercalates into the DNA of dead cells but is not taken up into live fibers. Media was mostly decanted from freshly plated fibers and the fibers were located using a microscope. 2–3 drops of either EtBr (2.5 μg/ml) in DMEM or Marcaine (0.05%)+EtBr (2.5 μg/ml) in DMEM were then added to the dish under continuous observation. Fiber hypercontraction was observed using a phase lens and the time course of EtBr nuclear staining was observed under UV light using a red filter. Photographs (ASA400 Fuji Colour Film) were taken to record staining of live, fixed, EtBr and Marcaine treated fibers and nuclei.
# dystrophic muscle = test: Central nucleation index (CNI) in LTA and diaphragm of treated mdx mice; format: in vivo; conditions: mdx mice treated from 4–8 weeks of age; for CNI (central nucleation index) in DIA: diaphragm; for CNI (central nucleation index) in LTA: left tibialis anterior
# Source text: A study of 4 groups (n≈10/group) of mdx dystrophic mice treated with placebo, deflazacort, deflazacort plus L-NAME (a NOS inhibitor), or deflazacort plus L-arginine (a […]). Deflazacort was given by daily injection (ip) and L-NAME and L-arginine were given systemically in the drinking water.
# When a normal peripherally nucleated myofiber degenerates, muscle precursor cells proliferate to varying extents (Grounds Md., McGeachie J K. (1989). Exp. Cell Res 180:429–439) and fuse to form centrally nucleated myotubes. These myotubes grow, or even hypertrophy compared to the original distribution of fiber size in that muscle, and span the injured area, (Anderson J E, Ovalle W K, Bressler B H. (1987). Anat. Rec. 219:243–257; Anderson J E, Bressler B H, Ovalle W K. (1988). J. Muscle Res. Cell Motil. 9:499–515; Ontell M, Feng K C, Klueber K, Dunn R F, Taylor F. (1984). Anat. Rec. 208:159 174) but remain centrally nucleated; thus the central nucleation index (CNI) is a useful measure of accumulated damage and repair. (Karpati G, Carpenter S. (1988). Muscle Nerve. 11:795–803). The CNI is a measurement well known in the art (see Karpati and Carpenter. 1988. Muscle Nerve. 11:795–803 and Anderson et al. 1996. Muscle Nerve. 19:1576–1585).
# CNI is the proportion of all fibers in a section or a muscle which show a centrally-located nucleus (often given as a percentage). Since muscular dystrophy causes ongoing damage of muscle fibers, the successful repair of those fibers is marked by centrally-nucleated fibers which accumulate as a proportion of total fibers. Unsuccessful repair can be viewed as a loss of fibers in a section of a whole muscle; this too can produce a change in the ratio of centrally nucleated to total number of fibers (expressed as a percentage).
# In this experiment, muscle tissues are collected from the treated animals. LTA and diaphragm muscles were sectioned, and counts of fibers with central nuclei and fibers with peripheral nuclei were performed. The largest diameter of the muscle section in each of the two sections of each muscle was used for counting, for 10 mice per group (2 muscles per mouse).
# This is similar for the tibialis anterior muscle (LTA) and diaphragm at the age shown in the graph (which is 8 weeks of age) and is reliably used to monitor the progressive effect of dystrophic fiber injury on a muscle over time as the disease progresses. CNI will increase with age in the mdx mice (until the plateau discussed above). Mice are treated from 4–8 weeks of age with placebo, Deflazacort, D+L-NAME or D+L-Arginine.
# muscle precursor cells = conditions: deflazacort treatment on mdx mice; cited from earlier work
# [4] = Marcaine (0.05%)+EtBr (2.5 μg/ml) in DMEM
compound,measurement,setting,value
"N=C(N)NCCC[C@H](N)C(=O)O [L-Arg, L-arginine]",RSOL cell counts,satellite cells [1],unchanged
same,RTA cell yield time course,satellite cells [1],"rose sharply at 5 min., and also stayed high"
same,muscle weight profile (RTA relative to LTA; muscle weight as proportion of body weight),[2],little or no change in muscle weight profile
same,concentration showing maximal activation,"satellite cells [3]; L-Arginine 50–1000 nM, initial results",500 nM
same,satellite cell activation (marked by DNA synthesis),"satellite cells [3]; single normal fibers, L-arginine at various concentrations, 48 hr",stimulates activation in a dose-dependent manner
same,satellite cell migration away from fibers,"satellite cells [3]; single normal fibers, L-arginine, 48 hr",stimulates satellite cell migration away from fibers
CCCCN1CCCCC1C(=O)Nc1c(C)cccc1C (stereo not drawn) [Marcaine],time to EtBr staining of nuclei of live fibers after Marcaine,muscle fibers; [4],60 to 90 s
same,time to fiber hypercontraction,muscle fibers; [4],5 to 10 min
same,further time until hypercontraction after nuclei fluoresce,muscle fibers; marcaine added to the medium,5 to 10 min
same,time after adding marcaine at which nuclei in fibers are fluorescent for EtBr,muscle fibers; marcaine added to the medium,5 min
CC(=O)OCC(=O)[C@@]12N=C(C)O[C@@H]1C[C@H]1[C@@H]3CCC4=CC(=O)C=C[C@]4(C)[C@H]3[C@@H](O)C[C@@]12C [deflazacort],CNI (central nucleation index) in DIA,dystrophic muscle,significantly lower CNI after deflazacort
same,CNI (central nucleation index) in LTA,dystrophic muscle,0.4
same,increase in precursor cell proliferation and formation of new muscle fibers,muscle precursor cells,1.5–2 fold
D+L-Arginine,CNI (central nucleation index) in DIA,dystrophic muscle,decrease the CNI of DIA from the level seen with D+L-NAME
same,CNI (central nucleation index) in LTA,dystrophic muscle,increase in LTA CNI from deflazacort alone; also recorded: still significantly lower than placebo treatment
